Reference: paper PMC3207847, “Characterization of a Novel Type of HIV-1 Particle Assembly Inhibitor Using a Quantitative Luciferase-Vpr Packaging-Based Assay” (PLoS ONE, 2011)
Converted amounts (≈) assume the structure as drawn. Read-outs that look alike come from different tables or passages of the source.

Key:
[1] = system: HIV-1 VLP assembly; assay: microbe, parasite or virus in culture; details: for IC50: Human immunodeficiency virus 1, 24 h; for SI (ratio CC50:IC50): selectivity index
Protocol: Cell culture medium was then harvested at 48 h pi, subjected to the 2-step ultracentrifugation analysis, and each gradient fraction probed for Gag polyprotein and luciferase activity, as above. […] The gradient fractions corresponding to the peak of luciferase activity were pooled, and the VLP contained in these fractions were pelleted, lysed and assayed for luciferase content.
Drug treatment was maintained for a further 24 h, and VLP released in the cell culture medium were pelleted through a sucrose cushion. The amounts of extracellular VLP recovered in the 48 h-pellets obtained in the presence of the different inhibitors were determined using the luciferase assays. After normalization to the luciferase activity determined in the corresponding cell lysates, the values of the ratio of VLP-incorporated to cell-associated luciferase activity were plotted versus the drug concentrations.
Sf9 cell culture supernatants were clarified by low-speed centrifugation, then VLP recovered using a two-step procedure comprising a sucrose-step gradient centrifugation, followed by an ultracentrifugation in linear D2O-sucrose gradient, [53]. (i) In the first step, VLP contained in the cell culture medium were pelleted through a sucrose cushion (20%, w:v, in TNE buffer; TNE: 100 mM NaCl, 10 mM Tris-HCl pH 7.4, 1 mM Na2EDTA) at 30 krpm for 1 h at 15°C in a Kontron TST55.5 rotor [12]. Pelleted VLP of step (i) were then gently resuspended in PBS (0.20–0.25 ml), and (ii) further analyzed by isopycnic ultracentrifugation in sucrose-D2O gradients, [53]. Linear gradients (10-ml total volume, 30–50%, w:v) were centrifuged for 18 h at 28 krpm in a Beckman SW41 rotor. The 50% sucrose solution was made in D2O buffered to pH 7.2 with NaOH, and the 30% sucrose solution was made in 10 mM Tris-HCl, pH 7.2, 150 mM NaCl, 5.7 mM Na2EDTA. Aliquots of 0.5 ml were collected from the top, and fractions analyzed for protein content by SDS-PAGE and immunoblotting, and by luciferase assay as described below.
Aliquots of Sf9 cells (10^6) were infected with two recombinant baculoviruses at equal multiplicity of infection (MOI of 10 PFU/cell, each). One expressed the HIV-1 Gag precursor (AcMNPV-Pr55Gag or control, p6-deleted AcMNPV-GagΔp6), the other the control Vpr protein (AcMNPV-Vpr) or the LucVpr fusion (AcMNPV-LucVpr). […] To avoid any interference with a possible effect of DMSO, DMSO was kept constant in volume in the different samples. […] Cells were harvested at 48 h pi, and extracellular VLP released in the culture medium were quantitated using luciferase assay. Membrane-enveloped VLP were pelleted and resuspended in lysis KDT buffer (KDT: 0.1 M potassium phosphate buffer, pH 7.8, 1 mM DTT, containing 0.2% Triton X100) for 30 min at 37°C with vortexing every 10 min. Luciferase activity associated with VLP was measured as previously described, using a Lumat LB-9501 luminometer (Berthold Technologies, Bad Wildbad, Germany). […] To compensate for eventual negative effects of drugs on LucVpr expression, the luciferase activity was measured in the corresponding cell lysates, obtained after lysis of the pelleted cells with KDT buffer. The results were expressed as relative light units (RLU) per µg protein. The values of the ratio of VLP-associated to intracellular luciferase activity were plotted versus the inhibitor concentration.

[2] = MTT cytotoxicity assay; assay type: cell-based, Spodoptera frugiperda; details: Spodoptera frugiperda, MTT assay, mean
Protocol: (§1) The cellular toxicity of the different compounds was evaluated using the MTT assays. […] The selectivity index (SI) was defined as the CC50 to IC50 ratio.

[3] = system: HIV-1; details: read-out: mean IC50, maturation cleavage of CAp24-SP1 / virus infectivity; cited from earlier work
[4] = system: HIV-1 VLP assembly and budding; assay: Electron microscopy of AcMNPV-Gag-infected Sf9 cells and released particles; assay type: cell-based; details: 5 and 10 µg/ml for 24 h at 24 h pi
Protocol: By contrast, control, untreated AcMNPV-Gag-infected Sf9 cells were decorated with VLP budding in abundance from the plasma membrane ( Fig. 8 , a; and also refer to [12], [28], [30], [32], [33], [53]).
Baculovirus-infected Sf9 cells were harvested at 48 h pi, pelleted, fixed with 2.5% glutaraldehyde in 0.1 M phosphate buffer, pH 7.5, post-fixed with osmium tetroxide (2% in H2O) and treated with 0.5% tannic acid solution in H2O. The specimens were dehydrated and embedded in Epon (Epon-812; Fulham, Latham, NY). Ultrathin sections were stained with 2.6% alkaline lead citrate and 0.5% uranyl acetate in 50% ethanol, and post-stained with 0.5% uranyl acetate solution in H2O [12], [28], [53]. Grids were examined under a Jeol JEM-1400 electron microscope, equiped with an ORIUS™ digitalized camera (Gatan France, 78113-Grandchamp). For statistical EM analyses, a minimum of 30 grid squares containing 10 to 20 cell sections each were examined for counting VLP budding at the cell surface, or budding in intracellular vesicular compartment.

[5] = system: Sf9 cells; assay: MTT cytotoxicity assay; assay type: cell-based, Spodoptera frugiperda
Protocol: as §1

[6] = system: HIV-1 VLP assembly and budding; details: cited from earlier work
[7] = system: HIV-1 VLP assembly and budding; details: 10 µg/ml (17 µM); AcMNPV-Gag-infected Sf9 cells; cited from earlier work
[8] = read-out: IC50 (µM), 50% inhibitory activity on VLP assembly, Sf9 cells coexpressing Pr55Gag and LucVpr, drug added at 24 h pi for 24 h, mean
[9] = read-out: IC50 (µg/ml), 50% inhibitory activity on VLP assembly, Sf9 cells coexpressing Pr55Gag and LucVpr, drug added at 24 h pi for 24 h, mean ± SEM, n = 4

SMILES	IC50 [1, 8] [µM]	IC50 [1, 9] [µg/mL]	SI (ratio CC50:IC50) [1]	CC50 ([2]; Sf9 cells) [µM]	also measured
C=C(C)[C@@H]1CC[C@]2(C(=O)O)CC[C@]3(C)[C@H](CC[C@@H]4[C@@]5(C)CC[C@H](O)C(C)(C)[C@@H]5CC[C@]43C)[C@@H]12 [BA, betulinic acid, reference compound]	39.4	18 ± 3	1.1	–	CC50 [2]: 43.8 µM
C=C(C)[C@@H]1CC[C@]2(C(=O)NCCN)CC[C@]3(C)C(CCC4[C@@]5(C)CC[C@H](OC(=O)CC(C)(C)C(=O)O)C(C)(C)C5CC[C@]43C)C12 (some centres unmarked) [EP-39, ethylene diamine-conjugated DSB]	–	–	–	120	IC50 [3]: 0.016 µM
C=C(C)[C@@H]1CC[C@]2(C(=O)NC(CCCCNC(=O)OC(C)(C)C)C(=O)O)CC[C@]3(C)C(CCC4[C@@]5(C)CC[C@H](OC(=O)CC(C)(C)C(=O)O)C(C)(C)C5CC[C@]43C)C12 (some centres unmarked) [EP-47, ε-N-tert-butoxycarbonyl-lysine-conjugated DSB]	1.9	1 to 2	13.0	24.7	IC50 (µg/ml), 50% inhibitory activity on VLP assembly ([1]; Sf9 cells coexpressing Pr55Gag and LucVpr, drug added at 24 h pi for 24 h, mean ± SEM, n = 4): 1.6 ± 0.5 µg/mL (≈ 1.97 µM); Effect on VLP assembly and budding (EM pattern) [4]: net inhibitory effect on VLP assembly and budding
C=C(C)[C@@H]1CC[C@]2(C(=O)NCCC(=O)O)CC[C@]3(C)C(CCC4[C@@]5(C)CC[C@H](OC(=O)CC(C)(C)C(=O)O)C(C)(C)C5CC[C@]43C)C12 (stereo partly drawn) [EP-48, beta-alanine-conjugated DSB]	–	–	–	4.2	Effect on VLP assembly (in words) [1]: no specific effect on VLP assembly; Cytotoxic effect (in words) [5]: pronounced cytotoxic effect
C=C(C)[C@@H]1CC[C@]2(C(=O)NC(CCCCN)C(=O)O)CC[C@]3(C)C(CCC4[C@@]5(C)CC[C@H](OC(=O)CC(C)(C)C(=O)O)C(C)(C)C5CC[C@]43C)C12 (some centres unmarked) [EP-62, lysine-conjugated DSB with free lysine ε-NH2 group]	4.8	3.4 ± 0.4	0.7	3.5	Effect on VLP assembly (in words) [1]: no specific effect on VLP assembly; Cytotoxic effect (in words) [5]: pronounced cytotoxic effect
C=C(C)[C@@H]1CC[C@]2(C(=O)O)CC[C@]3(C)[C@H](CC[C@@H]4[C@@]5(C)CC[C@H](OC(=O)CC(C)(C)C(=O)O)C(C)(C)[C@@H]5CC[C@]43C)[C@@H]12 [PA-457, 3-O-(3',3'-dimethylsuccinyl)-betulinic acid]	–	–	–	–	IC50 ([6]; immuno-radiochemical assay of VLP): 8 to 10 µM; IC50 on assembly and budding of HIV-1 VLP ([6]; insect cells expressing Pr55Gag, previous study ref 12): 5 to 6 µg/mL; Effect on VLP budding and egress [7]: totally abolished VLP budding and egress
C=C(C)[C@@H]1CC[C@]2(C(=O)NCC(=O)O)CC[C@]3(C)C(CCC4[C@@]5(C)CC[C@H](OC(=O)CC(C)(C)C(=O)O)C(C)(C)C5CC[C@]43C)C12 (some centres unmarked) [ST-327, Glycine-conjugated DSB]	5.9	3.8 ± 1.6	5.3	31.1	Effect on VLP assembly and budding (EM pattern) [4]: net inhibitory effect on VLP assembly and budding
